# Reference: ChEMBL document CHEMBL3785078 (Eur J Clin Pharmacol, 1981)
# How the values were obtained:
# clinical [1] = settings: human, in vivo, po, 350 mg/kg
# Description: Terminal half life in patient (7 patients) with renal insufficiency at 350 mg/kg, po
# [2] = Apparent volume of distribution in beta-phase in iv dosed patient (7 patients) with renal insufficiency; settings: human, in vivo
# clinical [3] = settings: human, in vivo, po, 50 mg/kg
# Description: Terminal half life in patient (7 patients) with renal insufficiency at 50 mg/kg, po
# [4] = Apparent volume of distribution at central compartment in iv dosed patient (7 patients) with renal insufficiency; settings: human, in vivo
# [5] = Apparent first order elimination rate constant from the central compartment in iv dosed patient with normal renal function; settings: human, in vivo
# [6] = Drug excretion in human assessed as unchanged parent compound level; settings: in vivo
# [7] = Apparent first order elimination rate constant from the central compartment in iv dosed patient (7 patients) with renal insufficiency; settings: human, in vivo
# [8] = Disposition rate constant in iv dosed patient (7 patients) with renal insufficiency; settings: human, in vivo
# [9] = Disposition rate constant in patient (7 patients) with renal insufficiency at 50 mg/kg, po; settings: human, in vivo
# [10] = Disposition rate constant in patient (7 patients) with renal insufficiency at 350 mg/kg, po; settings: human, in vivo
# [11] = Total body clearance in iv dosed patient with normal renal function; settings: human, in vivo
# [12] = Apparent volume of distribution at steady state in iv dosed patient (7 patients) with renal insufficiency; settings: human, in vivo
# [13] = Apparent volume of distribution at steady state in iv dosed patient with normal renal function; settings: human, in vivo
# [14] = Half life in patient (5 patients) with severe renal insufficiency assessed as unchanged compound level using 14C labeled compound measured over 72 hrs; settings: human, in vivo
# [15] = Total body clearance in iv dosed patient (7 patients) with renal insufficiency; settings: human, in vivo
# [16] = Apparent volume of distribution in beta-phase iv dosed patient with normal renal function; settings: human, in vivo
# [17] = Terminal half life in iv dosed patient with normal renal function; settings: human, in vivo
# [18] = Terminal half life in iv dosed patient (7 patients) with renal insufficiency; settings: human, in vivo
# [19] = Half life in patient with normal renal function assessed as unchanged compound level using 14C labeled compound measured over 72 hrs; settings: human, in vivo
smiles,measurement,setting,value
O=P1(N(CCCl)CCCl)NCCCO1 (centres undefined) [CYCLOPHOSPHAMIDE ANHYDROUS],half-life,clinical [1],5.21 h
same,Vd,[2],0.72 L/kg
same,half-life,clinical [3],13.7 h
same,Vd,[4],0.41 L/kg
same,k el,[5],4.86e-05 s⁻¹
same,dose excreted,[6],< 15%
same,k el,[7],3.36e-05 s⁻¹
same,k el,[8],1.94e-05 s⁻¹
same,k el,[9],1.42e-05 s⁻¹
same,k el,[10],1.92e-05 s⁻¹
same,clearance,[11],0.977 mL/min/kg
same,Vd,[12],0.58 L/kg
same,Vd,[13],0.73 L/kg
same,half-life at 72 h,[14],14 h
same,clearance,[15],0.813 mL/min/kg
same,Vd,[16],0.68 L/kg
same,half-life,[17],8.21 h
same,half-life,[18],10.2 h
same,half-life at 72 h,[19],6.9 h
